Assay results reported in ChEMBL document CHEMBL5465560, “Selectivity Literature for EUbOPEN Chemogenomic Library” (2024).
Each block holds one molecule with its values, some of them ahead of it.

Legend:
[1] = biological target: Protein polybromo-1 (Homo sapiens) (UniProt Q86U86); assay: Selectivity interaction (Human bromodomain panel (DSF assay)) EUB0000233b PBRM1
Thromboxane A2 receptor = Thromboxane A2 receptor (Homo sapiens, UniProt P21731); assay: Selectivity interaction (Thromboxane A2 receptor binding assay, human recombinant) EUB0000877a TBXA2R
[2] = biological target: Protein-arginine deiminase type-4 (Homo sapiens, UniProt Q9UM07); assay: Selectivity interaction (Fluorescence polarization ligand binding assay (2 mM calcium)) EUB0000266bCl PADI4
[3] = biological target: DNA-dependent protein kinase catalytic subunit (Homo sapiens) (UniProt P78527); assay: Selectivity interaction (ActivX KiNativ screen (kinase selectivity in THP-1 cell lysates)) EUB0000639a PRKDC; type: subcellular; conditions: lysate
Aurora kinase B = Aurora kinase B (Homo sapiens, UniProt Q96GD4); assay: Selectivity interaction (ActivX KiNativ screen (kinase selectivity in THP-1 cell lysates)) EUB0000639a AURKB; type: subcellular; conditions: lysate, at 5 µM
[4] = biological target: Angiopoietin-1 receptor (Homo sapiens) (UniProt Q02763); assay: Selectivity interaction (ProQinase) EUB0000171b TEK; conditions: at 5 µM
[5] = biological target: Fibroblast growth factor receptor 2 (Homo sapiens) (UniProt P21802); assay: Selectivity interaction (ProQinase) EUB0000171b FGFR2
[6] = biological target: Tyrosine-protein kinase Fer (Homo sapiens) (UniProt P16591); assay: Selectivity interaction (KinomeScan (DiscoverX)) EUB0000695a FER; conditions: at 100 nM
[7] = biological target: T1, Calcium/calmodulin-dependent protein kinase type IV (Homo sapiens) (UniProt Q16566); assay: Selectivity interaction (KinomeScan (DiscoverX)) EUB0001049a CAMK4; conditions: at 1 µM
T1 sequence (whole entry): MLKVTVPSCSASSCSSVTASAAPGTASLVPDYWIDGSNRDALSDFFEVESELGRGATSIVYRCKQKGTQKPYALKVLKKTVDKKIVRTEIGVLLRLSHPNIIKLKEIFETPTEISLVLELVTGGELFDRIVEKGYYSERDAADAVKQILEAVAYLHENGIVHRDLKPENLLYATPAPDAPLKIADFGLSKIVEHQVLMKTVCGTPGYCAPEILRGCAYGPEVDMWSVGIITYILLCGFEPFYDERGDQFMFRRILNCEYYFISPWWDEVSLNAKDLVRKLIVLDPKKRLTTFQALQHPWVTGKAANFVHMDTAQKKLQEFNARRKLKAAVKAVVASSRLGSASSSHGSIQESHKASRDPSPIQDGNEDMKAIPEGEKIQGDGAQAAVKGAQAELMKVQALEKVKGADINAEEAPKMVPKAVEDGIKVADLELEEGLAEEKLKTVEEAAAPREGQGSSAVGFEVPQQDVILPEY

[8] = biological target: T2, Serine/threonine-protein kinase greatwall (Homo sapiens) (UniProt Q96GX5); assay: Selectivity interaction (Kinase panel (KiNativ target engagement assay in Jurkat cells)) EUB0001635a MASTL; type: cell-based; conditions: at 1 µM
T2 sequence (whole entry): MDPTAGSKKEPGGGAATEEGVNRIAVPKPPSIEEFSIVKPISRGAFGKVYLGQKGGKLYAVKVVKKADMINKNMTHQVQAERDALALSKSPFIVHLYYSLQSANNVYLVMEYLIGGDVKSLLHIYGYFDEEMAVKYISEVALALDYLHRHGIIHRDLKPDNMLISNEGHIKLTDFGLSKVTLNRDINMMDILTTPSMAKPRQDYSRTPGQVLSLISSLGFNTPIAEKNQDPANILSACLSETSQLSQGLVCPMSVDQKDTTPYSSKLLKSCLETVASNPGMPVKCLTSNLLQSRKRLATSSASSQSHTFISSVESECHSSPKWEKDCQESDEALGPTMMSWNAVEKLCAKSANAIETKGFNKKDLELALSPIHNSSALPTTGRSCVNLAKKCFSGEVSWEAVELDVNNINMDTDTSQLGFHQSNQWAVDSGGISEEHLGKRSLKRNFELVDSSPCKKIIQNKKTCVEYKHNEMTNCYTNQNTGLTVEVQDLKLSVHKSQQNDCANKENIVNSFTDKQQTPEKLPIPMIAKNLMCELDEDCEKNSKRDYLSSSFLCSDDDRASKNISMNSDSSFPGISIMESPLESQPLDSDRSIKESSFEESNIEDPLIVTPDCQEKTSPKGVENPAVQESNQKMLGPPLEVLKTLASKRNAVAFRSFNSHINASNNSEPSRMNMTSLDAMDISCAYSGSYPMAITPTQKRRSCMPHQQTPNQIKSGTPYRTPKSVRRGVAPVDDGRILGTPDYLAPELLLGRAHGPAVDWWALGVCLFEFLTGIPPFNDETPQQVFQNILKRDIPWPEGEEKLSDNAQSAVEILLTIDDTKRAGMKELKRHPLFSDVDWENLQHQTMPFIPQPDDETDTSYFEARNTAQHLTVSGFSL

[9] = biological target: Mitogen-activated protein kinase kinase kinase 20 (Homo sapiens) (UniProt Q9NYL2); assay: Selectivity interaction (KinomeScan (DiscoverX)) EUB0000618a MAP3K20; conditions: at 10 µM

Sequence of DNA-dependent protein kinase catalytic subunit (Homo sapiens) (P78527 whole entry): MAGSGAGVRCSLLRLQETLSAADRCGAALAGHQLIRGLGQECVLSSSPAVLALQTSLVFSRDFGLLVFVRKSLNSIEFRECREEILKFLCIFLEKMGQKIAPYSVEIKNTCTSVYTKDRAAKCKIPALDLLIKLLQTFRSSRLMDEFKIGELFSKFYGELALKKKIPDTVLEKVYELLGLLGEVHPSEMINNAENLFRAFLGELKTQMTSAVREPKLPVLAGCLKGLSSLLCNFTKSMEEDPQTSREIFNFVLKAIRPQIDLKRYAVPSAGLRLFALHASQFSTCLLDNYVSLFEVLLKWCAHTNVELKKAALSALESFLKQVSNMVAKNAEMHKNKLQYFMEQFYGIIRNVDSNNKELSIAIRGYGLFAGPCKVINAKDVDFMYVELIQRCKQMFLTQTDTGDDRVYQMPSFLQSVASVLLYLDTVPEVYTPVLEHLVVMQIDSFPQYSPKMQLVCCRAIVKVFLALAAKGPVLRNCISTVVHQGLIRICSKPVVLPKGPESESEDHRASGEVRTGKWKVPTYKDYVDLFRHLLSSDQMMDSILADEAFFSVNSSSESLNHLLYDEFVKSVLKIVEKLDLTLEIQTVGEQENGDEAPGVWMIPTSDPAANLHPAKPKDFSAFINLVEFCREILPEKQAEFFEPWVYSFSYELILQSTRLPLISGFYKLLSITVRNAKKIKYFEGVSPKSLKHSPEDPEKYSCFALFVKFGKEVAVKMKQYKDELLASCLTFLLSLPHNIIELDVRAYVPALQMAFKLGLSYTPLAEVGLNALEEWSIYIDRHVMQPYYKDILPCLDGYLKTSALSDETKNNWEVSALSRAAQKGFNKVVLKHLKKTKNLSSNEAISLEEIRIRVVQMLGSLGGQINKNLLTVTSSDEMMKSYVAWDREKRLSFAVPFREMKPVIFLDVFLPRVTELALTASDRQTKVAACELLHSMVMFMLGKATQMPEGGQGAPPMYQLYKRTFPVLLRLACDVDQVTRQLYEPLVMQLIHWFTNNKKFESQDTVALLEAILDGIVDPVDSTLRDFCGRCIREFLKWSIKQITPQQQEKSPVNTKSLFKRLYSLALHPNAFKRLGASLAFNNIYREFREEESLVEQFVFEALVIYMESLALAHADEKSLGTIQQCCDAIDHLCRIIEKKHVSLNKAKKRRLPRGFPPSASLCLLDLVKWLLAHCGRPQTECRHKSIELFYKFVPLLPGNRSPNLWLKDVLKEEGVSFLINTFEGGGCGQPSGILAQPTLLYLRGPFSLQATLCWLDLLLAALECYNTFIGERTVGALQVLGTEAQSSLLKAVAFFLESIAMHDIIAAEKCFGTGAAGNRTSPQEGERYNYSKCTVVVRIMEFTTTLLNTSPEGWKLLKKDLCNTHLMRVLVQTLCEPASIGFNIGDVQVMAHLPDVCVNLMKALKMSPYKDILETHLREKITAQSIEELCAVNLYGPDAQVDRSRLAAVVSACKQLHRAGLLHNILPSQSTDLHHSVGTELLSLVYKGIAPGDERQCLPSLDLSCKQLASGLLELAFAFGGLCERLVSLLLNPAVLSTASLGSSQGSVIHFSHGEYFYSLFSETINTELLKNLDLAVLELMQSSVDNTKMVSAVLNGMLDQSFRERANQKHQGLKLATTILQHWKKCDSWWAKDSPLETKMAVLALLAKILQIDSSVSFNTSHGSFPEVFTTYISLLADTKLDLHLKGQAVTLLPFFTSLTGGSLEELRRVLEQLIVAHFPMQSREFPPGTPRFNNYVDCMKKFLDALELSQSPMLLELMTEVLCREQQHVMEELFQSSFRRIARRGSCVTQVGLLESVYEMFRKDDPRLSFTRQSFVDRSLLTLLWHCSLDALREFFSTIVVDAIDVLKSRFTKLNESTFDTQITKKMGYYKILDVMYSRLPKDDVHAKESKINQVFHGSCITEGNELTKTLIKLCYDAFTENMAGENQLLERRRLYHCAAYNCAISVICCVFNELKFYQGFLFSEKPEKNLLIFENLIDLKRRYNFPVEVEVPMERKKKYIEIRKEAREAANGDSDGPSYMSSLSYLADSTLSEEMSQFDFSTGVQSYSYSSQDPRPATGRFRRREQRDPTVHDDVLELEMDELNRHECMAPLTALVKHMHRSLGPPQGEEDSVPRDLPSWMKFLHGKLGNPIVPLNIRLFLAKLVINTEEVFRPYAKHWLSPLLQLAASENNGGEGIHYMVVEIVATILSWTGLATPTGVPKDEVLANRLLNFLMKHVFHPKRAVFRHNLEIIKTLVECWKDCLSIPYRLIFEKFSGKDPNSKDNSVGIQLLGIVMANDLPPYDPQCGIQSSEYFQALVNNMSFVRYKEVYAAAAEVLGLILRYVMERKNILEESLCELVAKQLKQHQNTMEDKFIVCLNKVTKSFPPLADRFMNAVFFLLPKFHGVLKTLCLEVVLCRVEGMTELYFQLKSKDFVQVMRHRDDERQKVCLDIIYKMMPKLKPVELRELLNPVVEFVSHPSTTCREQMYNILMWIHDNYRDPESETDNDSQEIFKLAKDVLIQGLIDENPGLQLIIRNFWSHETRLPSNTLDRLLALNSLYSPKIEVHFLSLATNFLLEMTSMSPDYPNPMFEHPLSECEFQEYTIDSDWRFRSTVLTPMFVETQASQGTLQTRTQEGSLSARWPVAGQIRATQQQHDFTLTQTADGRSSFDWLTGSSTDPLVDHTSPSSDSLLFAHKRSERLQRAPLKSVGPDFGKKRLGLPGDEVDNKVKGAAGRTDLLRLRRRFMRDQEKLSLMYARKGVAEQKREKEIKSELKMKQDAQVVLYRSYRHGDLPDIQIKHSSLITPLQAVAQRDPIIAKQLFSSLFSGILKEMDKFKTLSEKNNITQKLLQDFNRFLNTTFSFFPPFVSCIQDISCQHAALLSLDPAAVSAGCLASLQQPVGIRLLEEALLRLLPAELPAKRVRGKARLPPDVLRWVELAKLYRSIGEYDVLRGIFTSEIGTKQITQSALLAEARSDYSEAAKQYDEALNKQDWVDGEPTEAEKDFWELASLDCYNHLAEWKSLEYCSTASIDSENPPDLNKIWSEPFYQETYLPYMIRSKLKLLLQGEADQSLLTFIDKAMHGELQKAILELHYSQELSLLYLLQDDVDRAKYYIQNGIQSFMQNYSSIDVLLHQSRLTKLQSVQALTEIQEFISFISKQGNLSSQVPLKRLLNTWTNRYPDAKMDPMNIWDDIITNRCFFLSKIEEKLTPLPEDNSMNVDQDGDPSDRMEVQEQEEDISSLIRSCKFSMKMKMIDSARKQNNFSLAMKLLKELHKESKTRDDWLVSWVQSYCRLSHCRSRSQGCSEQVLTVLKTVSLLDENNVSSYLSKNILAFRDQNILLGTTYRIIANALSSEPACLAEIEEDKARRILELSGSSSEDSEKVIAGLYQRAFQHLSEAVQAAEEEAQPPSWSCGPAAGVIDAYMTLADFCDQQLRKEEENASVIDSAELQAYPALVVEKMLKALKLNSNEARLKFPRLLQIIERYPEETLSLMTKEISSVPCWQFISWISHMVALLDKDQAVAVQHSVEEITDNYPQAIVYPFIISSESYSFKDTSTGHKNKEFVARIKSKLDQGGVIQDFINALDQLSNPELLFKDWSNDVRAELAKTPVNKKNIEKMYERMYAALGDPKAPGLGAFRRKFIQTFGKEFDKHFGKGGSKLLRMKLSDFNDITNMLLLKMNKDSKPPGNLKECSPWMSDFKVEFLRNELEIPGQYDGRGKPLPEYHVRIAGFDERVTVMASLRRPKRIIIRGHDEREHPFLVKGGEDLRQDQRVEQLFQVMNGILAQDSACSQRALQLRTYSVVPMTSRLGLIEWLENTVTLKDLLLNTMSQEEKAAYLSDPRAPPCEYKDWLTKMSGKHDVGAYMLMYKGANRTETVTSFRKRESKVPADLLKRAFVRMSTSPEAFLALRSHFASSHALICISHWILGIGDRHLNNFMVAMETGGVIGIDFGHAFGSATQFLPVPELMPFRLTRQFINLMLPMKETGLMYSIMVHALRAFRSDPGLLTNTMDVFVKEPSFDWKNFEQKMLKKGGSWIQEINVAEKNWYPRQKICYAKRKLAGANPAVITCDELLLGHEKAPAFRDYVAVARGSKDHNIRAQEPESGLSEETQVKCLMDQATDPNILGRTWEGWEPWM
Sequence of Fibroblast growth factor receptor 2 (Homo sapiens) (P21802 22-821 limits assumed): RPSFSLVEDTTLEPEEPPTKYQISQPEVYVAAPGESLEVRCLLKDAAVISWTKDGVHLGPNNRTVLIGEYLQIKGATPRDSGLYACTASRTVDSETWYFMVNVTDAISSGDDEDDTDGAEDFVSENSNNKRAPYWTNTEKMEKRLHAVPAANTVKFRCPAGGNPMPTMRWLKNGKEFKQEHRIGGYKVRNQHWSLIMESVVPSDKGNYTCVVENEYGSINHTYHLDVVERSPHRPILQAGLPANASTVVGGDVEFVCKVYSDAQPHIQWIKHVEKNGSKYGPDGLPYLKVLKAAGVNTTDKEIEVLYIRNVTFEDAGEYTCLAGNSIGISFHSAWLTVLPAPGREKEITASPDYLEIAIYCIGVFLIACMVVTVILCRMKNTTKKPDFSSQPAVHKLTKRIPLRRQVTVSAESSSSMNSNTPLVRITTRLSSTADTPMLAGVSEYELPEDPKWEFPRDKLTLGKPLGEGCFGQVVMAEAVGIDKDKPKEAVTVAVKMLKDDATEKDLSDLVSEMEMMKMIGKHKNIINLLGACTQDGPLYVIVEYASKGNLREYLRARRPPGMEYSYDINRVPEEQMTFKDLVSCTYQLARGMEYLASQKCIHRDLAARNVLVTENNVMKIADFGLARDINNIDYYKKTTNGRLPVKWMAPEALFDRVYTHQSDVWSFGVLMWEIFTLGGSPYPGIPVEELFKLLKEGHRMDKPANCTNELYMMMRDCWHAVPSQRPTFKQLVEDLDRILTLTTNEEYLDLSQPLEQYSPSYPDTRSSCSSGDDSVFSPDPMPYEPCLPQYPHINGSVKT

IC50 (Thromboxane A2 receptor): > 30 µM
SMILES: CCC(=O)N1CC[C@H](Nc2ncnc3c2CN(c2cnc(OC)c(C(F)(F)F)c2)CC3)C1 [LENIOLISIB]

IC50 [2]: 0.25 µM
SMILES: CCn1c(-c2nc3cc(C(=O)N4CCCC(N)C4)ccc3n2C)cc2ccccc21 (stereo unspecified)

% of inhibition ([3]; at 0.01 µM): -17.9%
% of inhibition ([3]; at 0.04 µM): -5.4%
% of inhibition ([3]; at 0.2 µM): 5%
% of inhibition ([3]; at 1 µM): 12.5%
% of inhibition ([3]; at 5 µM): -1.4%
% of inhibition (Aurora kinase B): 64.4%
SMILES: CC[C@@H]1[C@H](F)C(=O)N[C@@H]1COc1nccc2cc(C(N)=O)c(OC)cc12 [ZIMLOVISERTIB]

% of control [4]: 96%
% of control ([5]; at 1 µM): 105%
% of control ([5]; at 5 µM): 87%
SMILES: C=CC(=O)Nc1cccc(C(=O)Nc2ccc(Nc3cc(-c4[nH]c(SC)nc4C)ccn3)cc2)c1

Further lines, the molecule ahead of its results:

SMILES: CN(C)CCCOc1ccc(-c2cc(NCCCn3cccn3)nc(S(C)(=O)=O)n2)cc1
dTM [1]: < 2 K

SMILES: Cc1cc(F)c(C(=O)Nc2cccc(-c3nncn3C(C)C)n2)cc1-n1cnc(C2CC2)c1
% of control [6]: 72%

SMILES: COc1cc(Nc2nc(C)cc(-c3cnn4nc(OC)ccc34)n2)cc(C(F)(F)F)c1
% of control [7]: 100%

SMILES: C=CC(=O)Nc1ccc(C(=O)Nc2[nH]nc3c2CN(C(=O)N[C@H](CN(C)C)c2ccccc2)C3(C)C)cc1
% of engagement [8]: 6.7%

SMILES: O[C@H]1CC[C@H](Nc2ncc3nc(Nc4c(F)cc(F)cc4F)n([C@H]4CCOC4)c3n2)CC1
% of control [9]: 100%
